This is an account of results in US10821104B2, “Five-membered heterocyclic amides WNT pathway inhibitor” (SUZHOU SINOVENT PHARMACEUTICALS CO., LTD., priority 2015, dated 2020).

A short description of data set [1]: Metabolic stability in human liver microsomes. The class given is in vitro ADME. The text has this: (§1) Metabolic stability and pharmacokinetic characteristics of REX-P-7 were detected in human and mouse liver microsomes and in Balb/c mice, respectively.
(In general: Liver microsomes are a subcellular fraction often used to study metabolism.)

Data set [2] deals with regeneration of zebrafish tailfin resected. Kind of data set: Effect of compounds on tailfin regeneration of zebrafish (resected caudal fin). The note with it: Danio rerio; 3 d.p.f. zebrafish with resected caudal fins treated until 7 d.p.f.; read-out: IC50, inhibition of regeneration of zebrafish tailfin resected. The class given is in vivo. The protocol:
Method: Three days post fertilization (d.p.f) zebrafish with resected caudal fins were placed in water containing 1% DMSO carrier or compounds (10 μM˜0.001 μM) until 7 d.p.f. The zebrafish were placed in a 6-well microplate at a density of 15 zebrafish per well with 3 mL of fish water. Zebrafish were incubated at 28.5° C. in the dark until 7 d.p.f., then anesthetized, and imaged under a dissecting stereomicroscope installed with a high-speed video camera (JVC, Japan). Quantitative length of regeneration of tailfin was performed and pixels data were expressed as mean±SEM. The effect of compound on regeneration of tailfin of zebrafish was calculated based on the following formula: Drug inhibition on regeneration of tailfin (%)=[1−Pixel(compound)/Pixel(vehicle)]×100%.
(§2) Inhibition curves were generated using GraphPad Prism 6.0 (GraphPad Software Inc., San Diego Calif.) and IC50 was determined with logistic regression.

Data set [3] can be described thus: Metabolic stability in mouse liver microsomes. The class given is in vitro ADME.
Description: as §1

Data set [4] concerns Wnt/β-catenin reporter (Super 8×TOPFLASH) in HEK293 cells cocultured with L-Wnt3a-expressing cells. Kind of data set: 293T/TOPLUC-Wnt3a luciferase reporter gene assay. The note with it: Homo sapiens, HEK293, 24 h incubation, read-out: IC50, inhibition of Wnt/β-catenin reporter gene readout. It counts as cell-based. The procedure:
In this assay, HEK293 cells harboring a luciferase-based Wnt/β-catenin reporter (Super 8×TOPFLASH) were cocultured with L-Wnt3a-expressing cells. 293T/TOPLUC-Wnt3a were incubated with small molecules for 24 h. The level of the Luciferase reporter gene was used as an indicator for Wnt ligand-driven, LEF/TCF-dependent transcriptional activities. IC50 is defined as the compound concentration at which 50% of luciferase reporter activity is inhibited.
Results: REX-P compounds were investigated on CrownBio Cell plateform to assay the activity of inhibiting Wnt/β-catenin reporter activity, results are shown in Table 3.
A general note: In a reporter assay the amount or activity of a reporter protein is the signal.

In the next data set the test system is zebrafish axis formation. Kind of data set: Effect of compounds on axis formation of zebrafish (zebrafish phenotype screening). The class given is in vivo, Zebrafish Danio rerio. Particulars: Danio rerio; embryos treated from 3 h to 48 h post fertilization; concentration at which 50% of axis formation is inhibited; read-out: IC50, inhibition of axis formation of zebrafish. The procedure:
Method: Zebrafish embryos were collected after natural spawning. Embryos were treated from the 16 cell stage (3 hours post fertilization) with different concentration series 100 μM˜0.001 μM of the compound in 1% DMSO/fish water or with DMSO equivalent. The zebrafish were placed in a 6-well microplate at a density of 20 zebrafish per well with 3 mL of fish water. Zebrafish were incubated at 28.5° C. in the dark until 48 h post fertilization, then anesthetized, and imaged under a dissecting stereomicroscope installed with a high-speed video camera (JVC, Japan). Quantitative length of axis was performed with NIS-Elements D 3.1 soft and pixels data were expressed as mean±SEM. The effect of compound on axis formation of zebrafish was calculated based on the following formula: Inhibition on axis growth (%)=[1−Pixel(compound)/Pixel(vehicle)]×100%
as §2

Data set [5] is described as follows: In vivo PK in Balb/c mice. The procedure: as §1
Method of PK experiment: 18 male Balb/c mice were divided into 2 groups, 9 animals in each group. Group 1 was administered intravenously with REX-P-7 at a dose of 5 mg/kg. Group 2 was administered orally with REX-P-7 at a dose of 10 mg/kg. Blood samples (100 μL) for PK analysis were collected into EDTA microtainers (K2 EDTA, the final concentration in blood sample is 0.25 mg/mL) from retro orbital plexus at pre-dose, 0.083, 0.25, 0.5, 1, 2, 4, 8, 24 hours post-dosing for PO and IV groups. Immediately after collection, blood collection tubes were gently inverted at least 5 times, ensuring complete mixing, then immediately placed on ice. The blood was centrifuged at 8000 rpm for 5 min at 4° C. to separate the plasma from the blood cells. After separation, 35 μL plasma was transferred into clean tube labeled by the compound name, animal number and timepoint. Plasma was stored at −80° C. until analysis.

[6] abbreviates: Balb/c mice, summary of Table 4.
The mark [7] stands for this setting: IV dose 5 mg/kg, male Balb/c mice, plasma.
The mark [8] stands for this setting: PO dose 10 mg/kg, male Balb/c mice, plasma.

In general, half-life refers to the time needed for the level to fall by half in the phase considered. Low values mean fast loss, high ones slow loss. The term bioavailability denotes dose-corrected exposure relative to a reference, in per cent. A high value points to good availability. `Cc1cc(-c2ncc(CNC(=O)c3cc(-c4ccccc4)on3)cc2C)ccn1` [REX-P-7, N-((2′,3-dimethyl-[2,4′-bipyridin]-5-yl)methyl)-5-phenylisoxazole-3-carboxamide]: the “Eh % (HLM)” value in data set [1] worked out at 56.7%. The IC50 in data set [2] was 47 nM; in data set [4], 0.69 nM; with zebrafish axis formation, 24 nM. In addition, the “Eh % (MLM)” value in data set [3] is 65%. Besides, the “bioavailability (in words)” value in data set [5] (setting [6]) was “good bioavailability”. The “half-life (in words)” value in data set [5] (setting [6]) was “good half-life”. Besides, the “CL (/F)” value in data set [5] (IV dose 5 mg/kg, male Balb/c mice) amounted to 2.83 mL/min/kg. The AUC0-t/Dose was determined as 5770 ng·h/mL in data set [5] (setting [7]) and 2922 ng·h/mL in data set [5] (setting [8]). Also, the Cmax/Dose in data set [5] (setting [7]) was 4167 ng/mL; in data set [5] (setting [8]), 1923 ng/mL. In addition, the half-life in data set [5] (mouse, plasma, IV dose 5 mg/kg, male Balb/c mice) is 1.68 h; in data set [5] (mouse, plasma, PO dose 10 mg/kg, male Balb/c mice), 1.62 h. Besides, the bioavailability in data set [5] (mouse, plasma, PO 10 mg/kg vs IV 5 mg/kg, male Balb/c mice) came out at 50.6%.
